Organism: Rattus norvegicus
Type: toxicity, organism-based, Sprague-Dawley
Settings: in vivo, po, route oral GAVAGE, vehicle 100 % SALINE; for ABSOLUTE EOSINOPHIL / ABSOLUTE LYMPHOCYTE / ABSOLUTE MONOCYTE / ABSOLUTE SEGMENTED NEUTROPHIL / BASOPHIL / EOSINOPHIL / ERYTHROCYTE COUNT / HEMATOCRIT / HEMOGLOBIN / LEUKOCYTE COUNT / LYMPHOCYTE / MEAN CORPUSCULAR HEMOGLOBIN / MEAN CORPUSCULAR HEMOGLOBIN CONCENTRATION / MEAN CORPUSCULAR VOLUME / MONOCYTE / NEUTROPHIL / NUCLEATED RED BLOOD CELLS / PLATELET COUNT: tissue Blood; for ALANINE AMINOTRANSFERASE / ALBUMIN / ALKALINE PHOSPHATASE / ASPARTATE AMINOTRANSFERASE / BLOOD UREA NITROGEN / CARBON DIOXIDE / CHLORIDE / CHOLESTEROL / CREATINE PHOSPHOKINASE / CREATININE / GLUCOSE / LACTATE DEHYDROGENASE / LIPASE / PHOSPHORUS / POTASSIUM / SODIUM / TOTAL BILIRUBIN / TOTAL PROTEIN / URIC ACID: tissue Plasma
[1] = 3000 mg/kg, 24 h, dose level Low, time 1 day
[2] = 6000 mg/kg, 6 h, dose level High, time 0.25 day
[3] = 6000 mg/kg, 24 h, dose level High, time 1 day

Description: DrugMatrix - Regimen: Single

SMILES: CCO [ALCOHOL]
- ABSOLUTE EOSINOPHIL [1]: 30.5 CELLS/uL
- ABSOLUTE LYMPHOCYTE [1]: 9902 CELLS/uL
- ABSOLUTE MONOCYTE [1]: 124.33 CELLS/uL
- ABSOLUTE SEGMENTED NEUTROPHIL [1]: 1059.83 CELLS/uL
- BASOPHIL [1]: 0%
- EOSINOPHIL [1]: 0.17%
- ERYTHROCYTE COUNT [1]: 5.39 x10E6/uL
- HEMATOCRIT [1]: 34.67%
- HEMOGLOBIN [1]: 13.7 G/DL
- LEUKOCYTE COUNT [1]: 11.12 x10E3/uL
- LYMPHOCYTE [1]: 88.17%
- MEAN CORPUSCULAR HEMOGLOBIN [1]: 25.42 pg
- MEAN CORPUSCULAR HEMOGLOBIN CONCENTRATION [1]: 39.57 G/DL
- MEAN CORPUSCULAR VOLUME [1]: 64.33 fL
- MONOCYTE [1]: 1.17%
- NEUTROPHIL [1]: 10.5%
- NUCLEATED RED BLOOD CELLS [1]: 0 /100WBC
- PLATELET COUNT [1]: 1071.33 x10E3/uL
- ALANINE AMINOTRANSFERASE [1]: 70.67 u/L
- ALBUMIN [1]: 4.18 G/DL
- ALKALINE PHOSPHATASE [1]: 267 u/L
- ASPARTATE AMINOTRANSFERASE [1]: 95.33 u/L
- BLOOD UREA NITROGEN [1]: 11.67 mg/dL
- CARBON DIOXIDE [1]: 35.67 mmol/L
- CHLORIDE [1]: 99.5 MEQ/L
- CHOLESTEROL [1]: 80.17 mg/dL
- CREATINE PHOSPHOKINASE [1]: 199.5 u/L
- CREATININE [1]: 0.21 mg/dL
- GLUCOSE [1]: 141 mg/dL
- LACTATE DEHYDROGENASE [1]: 59.67 u/L
- LIPASE [1]: 9.67 u/L
- PHOSPHORUS [1]: 10.12 mg/dL
- POTASSIUM [1]: 5.58 MEQ/L
- SODIUM [1]: 145.6 MEQ/L
- TOTAL BILIRUBIN [1]: 0.17 mg/dL
- TOTAL PROTEIN [1]: 6.1 G/DL
- URIC ACID [1]: 0.45 mg/dL
- ABSOLUTE EOSINOPHIL [2]: 29.17 CELLS/uL
- ABSOLUTE LYMPHOCYTE [2]: 14165.5 CELLS/uL
- ABSOLUTE MONOCYTE [2]: 257.5 CELLS/uL
- ABSOLUTE SEGMENTED NEUTROPHIL [2]: 3164.5 CELLS/uL
- BASOPHIL [2]: 0%
- EOSINOPHIL [2]: 0.17%
- ERYTHROCYTE COUNT [2]: 5.58 x10E6/uL
- HEMATOCRIT [2]: 37.53%
- HEMOGLOBIN [2]: 13.8 G/DL
- LEUKOCYTE COUNT [2]: 17.62 x10E3/uL
- LYMPHOCYTE [2]: 81.33%
- MEAN CORPUSCULAR HEMOGLOBIN [2]: 24.78 pg
- MEAN CORPUSCULAR HEMOGLOBIN CONCENTRATION [2]: 36.83 G/DL
- MEAN CORPUSCULAR VOLUME [2]: 67.33 fL
- MONOCYTE [2]: 1.33%
- NEUTROPHIL [2]: 17.17%
- NUCLEATED RED BLOOD CELLS [2]: 0 /100WBC
- PLATELET COUNT [2]: 1061.5 x10E3/uL
- ALANINE AMINOTRANSFERASE [2]: 46 u/L
- ALBUMIN [2]: 3.8 G/DL
- ALKALINE PHOSPHATASE [2]: 242.17 u/L
- ASPARTATE AMINOTRANSFERASE [2]: 95.83 u/L
- BLOOD UREA NITROGEN [2]: 12.33 mg/dL
- CARBON DIOXIDE [2]: 17.17 mmol/L
- CHLORIDE [2]: 105.33 MEQ/L
- CHOLESTEROL [2]: 77 mg/dL
- CREATINE PHOSPHOKINASE [2]: 431.5 u/L
- CREATININE [2]: 0.13 mg/dL
- GLUCOSE [2]: 194.5 mg/dL
- LACTATE DEHYDROGENASE [2]: 355.33 u/L
- LIPASE [2]: 9.33 u/L
- PHOSPHORUS [2]: 16.82 mg/dL
- POTASSIUM [2]: 5.94 MEQ/L
- SODIUM [2]: 144.57 MEQ/L
- TOTAL BILIRUBIN [2]: 0.0667 mg/dL
- TOTAL PROTEIN [2]: 5.12 G/DL
- URIC ACID [2]: 2.45 mg/dL
- ABSOLUTE EOSINOPHIL [3]: 0 CELLS/uL
- ABSOLUTE LYMPHOCYTE [3]: 13674.83 CELLS/uL
- ABSOLUTE MONOCYTE [3]: 258.33 CELLS/uL
- ABSOLUTE SEGMENTED NEUTROPHIL [3]: 983.5 CELLS/uL
- BASOPHIL [3]: 0%
- EOSINOPHIL [3]: 0%
- ERYTHROCYTE COUNT [3]: 5.27 x10E6/uL
- HEMATOCRIT [3]: 34.4%
- HEMOGLOBIN [3]: 13.68 G/DL
- LEUKOCYTE COUNT [3]: 14.92 x10E3/uL
- LYMPHOCYTE [3]: 91.33%
- MEAN CORPUSCULAR HEMOGLOBIN [3]: 26.03 pg
- MEAN CORPUSCULAR HEMOGLOBIN CONCENTRATION [3]: 39.82 G/DL
- MEAN CORPUSCULAR VOLUME [3]: 65.33 fL
- MONOCYTE [3]: 1.83%
- NEUTROPHIL [3]: 6.83%
- NUCLEATED RED BLOOD CELLS [3]: 0 /100WBC
- PLATELET COUNT [3]: 1124.67 x10E3/uL
- ALANINE AMINOTRANSFERASE [3]: 81 u/L
- ALBUMIN [3]: 3.95 G/DL
- ALKALINE PHOSPHATASE [3]: 284.5 u/L
- ASPARTATE AMINOTRANSFERASE [3]: 90.67 u/L
- BLOOD UREA NITROGEN [3]: 11.5 mg/dL
- CARBON DIOXIDE [3]: 32.5 mmol/L
- CHLORIDE [3]: 100.67 MEQ/L
- CHOLESTEROL [3]: 68.83 mg/dL
- CREATINE PHOSPHOKINASE [3]: 207.83 u/L
- CREATININE [3]: 0.3 mg/dL
- GLUCOSE [3]: 144 mg/dL
- LACTATE DEHYDROGENASE [3]: 74 u/L
- LIPASE [3]: 9 u/L
- PHOSPHORUS [3]: 10.7 mg/dL
- POTASSIUM [3]: 5.34 MEQ/L
- SODIUM [3]: 145 MEQ/L
- TOTAL BILIRUBIN [3]: 0.15 mg/dL
- TOTAL PROTEIN [3]: 5.78 G/DL
- URIC ACID [3]: 0.53 mg/dL
